Test system: 422866-222-R5-J1-PDC spheroids with HUVEC/MSC, viability
Test: Anticancer human tumor 422866-222-R5-J1-PDC patient-derived pancreatic adenocarcinoma cell line growth inhibition [GQUAD]
Conditions: for IC50: curve of first compound; for viability, T/C: stronger effect = lower value
In short: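 Multi-cell-type spheroids of tumor cells with HUVEC and mesenchymal stem cells, treated with drug combinations. Concentrations descend in half-log steps from near clinical Cmax, or from 10 microM where Cmax is unknown; viability read-out.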

[1] = second compound 0.0316 µM, first compound 0.0316 µM
[2] = second compound 0.0316 µM, first compound 0.1 µM
[3] = second compound 0.0316 µM, first compound 0.316 µM
[4] = second compound 0.0316 µM, first compound 1 µM
[5] = second compound 0.0316 µM, first compound 3.16 µM
[6] = second compound 0.0316 µM, first compound 10 µM
[7] = second compound 0.1 µM, first compound 0.0316 µM
[8] = second compound 0.1 µM, first compound 0.1 µM
[9] = second compound 0.1 µM, first compound 0.316 µM
[10] = second compound 0.1 µM, first compound 1 µM
[11] = second compound 0.1 µM, first compound 3.16 µM
[12] = second compound 0.1 µM, first compound 10 µM
[13] = second compound 0.316 µM, first compound 0.0316 µM
[14] = second compound 0.316 µM, first compound 0.1 µM
[15] = second compound 0.316 µM, first compound 0.316 µM
[16] = second compound 0.316 µM, first compound 1 µM
[17] = second compound 0.316 µM, first compound 3.16 µM
[18] = second compound 0.316 µM, first compound 10 µM
[19] = second compound 1 µM, first compound 0.0316 µM
[20] = second compound 1 µM, first compound 0.1 µM
[21] = second compound 1 µM, first compound 0.316 µM
[22] = second compound 1 µM, first compound 1 µM
[23] = second compound 1 µM, first compound 3.16 µM
[24] = second compound 1 µM, first compound 10 µM
[25] = second compound 3.16 µM, first compound 0.0316 µM
[26] = second compound 3.16 µM, first compound 0.1 µM
[27] = second compound 3.16 µM, first compound 0.316 µM
[28] = second compound 3.16 µM, first compound 1 µM
[29] = second compound 3.16 µM, first compound 3.16 µM
[30] = second compound 3.16 µM, first compound 10 µM
[31] = second compound 10 µM, first compound 0.0316 µM
[32] = second compound 10 µM, first compound 0.1 µM
[33] = second compound 10 µM, first compound 0.316 µM
[34] = second compound 10 µM, first compound 1 µM
[35] = second compound 10 µM, first compound 3.16 µM
[36] = second compound 10 µM, first compound 10 µM
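Further: spheroids exposed to compounds for seven days before reading.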
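Wherever viability, T/C is given: percent viability relative to DMSO vehicle control taken as 100%.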

`C=CCn1c(=O)c2cnc(Nc3ccc(N4CCN(C)CC4)cc3)nc2n1-c1cccc(C(C)(C)O)n1` + Cc1cnc(CNC(=O)c2c(=O)c3ccc(N4CCCN(C)CC4)nc3n3c2sc2ccccc23)cn1 showed an IC50 (second compound 0.0316 µM) of 310 nM, an IC50 (second compound 0.1 µM) of 545 nM and an IC50 (second compound 0.316 µM) of 1320 nM. It also gave an IC50 (second compound 1 µM) of 2270 nM, an IC50 (second compound 3.16 µM) of 3240 nM and an IC50 (second compound 10 µM) of 2780 nM. For the same compound, the viability, T/C [1] was 86.8%, the viability, T/C [2] was 70% and the viability, T/C [3] was 51.6%. For the same compound, the viability, T/C [4] was 35.2%, the viability, T/C [5] was 29.1% and the viability, T/C [6] was 34.2%. It also gave a viability, T/C [7] of 89.2%, a viability, T/C [8] of 71.9% and a viability, T/C [9] of 54.1%. For the same compound, the viability, T/C [10] was 45.5%, the viability, T/C [11] was 38.5% and the viability, T/C [12] was 36.7%. The viability, T/C [13] was 85%, the viability, T/C [14] was 80.2% and the viability, T/C [15] was 63.5%. It also gave a viability, T/C [16] of 52.4%, a viability, T/C [17] of 43.6% and a viability, T/C [18] of 34.2%. It also gave a viability, T/C [19] of 74.7%, a viability, T/C [20] of 74.2% and a viability, T/C [21] of 64.8%. The viability, T/C [22] was 57.3%, the viability, T/C [23] was 46.2% and the viability, T/C [24] was 44.8%. It also gave a viability, T/C [25] of 82.8%, a viability, T/C [26] of 64.5% and a viability, T/C [27] of 65.5%. The viability, T/C [28] was 62.4%, the viability, T/C [29] was 51.4% and the viability, T/C [30] was 39.6%. The viability, T/C [31] was 72.9%, the viability, T/C [32] was 73.4% and the viability, T/C [33] was 70.8%. The viability, T/C [34] was 60.8%, the viability, T/C [35] was 49% and the viability, T/C [36] was 42.3%.

For `CC(C)(O)C1CCC(Nc2ccc3ncc(-c4cccc(C(F)(F)F)c4)n3n2)CC1` (stereo unspecified) + Cc1cnc(CNC(=O)c2c(=O)c3ccc(N4CCCN(C)CC4)nc3n3c2sc2ccccc23)cn1, the IC50 (second compound 0.0316 µM) was 1440 nM, the IC50 (second compound 0.1 µM) was greater than 10000 nM and the IC50 (second compound 0.316 µM) was greater than 10000 nM. It also gave an IC50 (second compound 1 µM) greater than 10000 nM, an IC50 (second compound 3.16 µM) greater than 10000 nM and an IC50 (second compound 10 µM) of 1810 nM. For the same compound, the viability, T/C [1] was 102%, the viability, T/C [2] was 80.6% and the viability, T/C [3] was 97.1%. For the same compound, the viability, T/C [4] was 51.4%, the viability, T/C [5] was 42% and the viability, T/C [6] was 51.8%. It also gave a viability, T/C [7] of 91.4%, a viability, T/C [8] of 76.3% and a viability, T/C [9] of 81.2%. For the same compound, the viability, T/C [10] was 66.5%, the viability, T/C [11] was 58.8% and the viability, T/C [12] was 63.7%. The viability, T/C [13] was 86.8%, the viability, T/C [14] was 83.9% and the viability, T/C [15] was 75.1%. The viability, T/C [16] was 78.6%, the viability, T/C [17] was 76.3% and the viability, T/C [18] was 75.5%. It also gave a viability, T/C [19] of 74.6%, a viability, T/C [20] of 88.7% and a viability, T/C [21] of 79.4%. It also gave a viability, T/C [22] of 75.6%, a viability, T/C [23] of 82.3% and a viability, T/C [24] of 75.4%. For the same compound, the viability, T/C [25] was 71.1%, the viability, T/C [26] was 101% and the viability, T/C [27] was 76%. For the same compound, the viability, T/C [28] was 72.8%, the viability, T/C [29] was 68.5% and the viability, T/C [30] was 54.1%. It also gave a viability, T/C [31] of 83%, a viability, T/C [32] of 67.8% and a viability, T/C [33] of 83.2%. For the same compound, the viability, T/C [34] was 75.5%, the viability, T/C [35] was 25.9% and the viability, T/C [36] was 0.79%.

With `Cc1[nH]c2ccccc2c1CCNCc1ccc(/C=C/C(=O)NO)cc1` + Cc1cnc(CNC(=O)c2c(=O)c3ccc(N4CCCN(C)CC4)nc3n3c2sc2ccccc23)cn1 the IC50 (second compound 0.0316 µM) was greater than 316 nM, the IC50 (second compound 0.1 µM) was 277 nM and the IC50 (second compound 0.316 µM) was greater than 316 nM. For the same compound, the IC50 (second compound 1 µM) was greater than 316 nM, the IC50 (second compound 3.16 µM) was 269 nM and the IC50 (second compound 10 µM) was 227 nM. The viability, T/C (second compound 0.0316 µM, first compound 0.000999 µM) was 99.8%, the viability, T/C (second compound 0.0316 µM, first compound 0.00316 µM) was 94.7% and the viability, T/C (second compound 0.0316 µM, first compound 0.00999 µM) was 83.5%. For the same compound, the viability, T/C [1] was 65.8%, the viability, T/C (second compound 0.0316 µM, first compound 0.0999 µM) was 77.8% and the viability, T/C [3] was 46.8%. It also gave a viability, T/C (second compound 0.1 µM, first compound 0.000999 µM) of 91.6%, a viability, T/C (second compound 0.1 µM, first compound 0.00316 µM) of 86.7% and a viability, T/C (second compound 0.1 µM, first compound 0.00999 µM) of 83.4%. The viability, T/C [7] was 66.6%, the viability, T/C (second compound 0.1 µM, first compound 0.0999 µM) was 68% and the viability, T/C [9] was 46.6%. It also gave a viability, T/C (second compound 0.316 µM, first compound 0.000999 µM) of 79.5%, a viability, T/C (second compound 0.316 µM, first compound 0.00316 µM) of 73.9% and a viability, T/C (second compound 0.316 µM, first compound 0.00999 µM) of 80.3%. The viability, T/C [13] was 78.8%, the viability, T/C (second compound 0.316 µM, first compound 0.0999 µM) was 67.4% and the viability, T/C [15] was 55.9%. For the same compound, the viability, T/C (second compound 1 µM, first compound 0.000999 µM) was 75.2%, the viability, T/C (second compound 1 µM, first compound 0.00316 µM) was 72.6% and the viability, T/C (second compound 1 µM, first compound 0.00999 µM) was 74.3%. The viability, T/C [19] was 62.6%, the viability, T/C (second compound 1 µM, first compound 0.0999 µM) was 70.4% and the viability, T/C [21] was 63.7%. The viability, T/C (second compound 3.16 µM, first compound 0.000999 µM) was 73.8%, the viability, T/C (second compound 3.16 µM, first compound 0.00316 µM) was 78.6% and the viability, T/C (second compound 3.16 µM, first compound 0.00999 µM) was 87.4%. For the same compound, the viability, T/C [25] was 78.8%, the viability, T/C (second compound 3.16 µM, first compound 0.0999 µM) was 76.1% and the viability, T/C [27] was 45.8%. The viability, T/C (second compound 10 µM, first compound 0.000999 µM) was 75.2%, the viability, T/C (second compound 10 µM, first compound 0.00316 µM) was 67.8% and the viability, T/C (second compound 10 µM, first compound 0.00999 µM) was 68.7%. It also gave a viability, T/C [31] of 84.5%, a viability, T/C (second compound 10 µM, first compound 0.0999 µM) of 70.3% and a viability, T/C [33] of 41.4%.
